This passage reports IC50 results from patent publication US9139567B2, “Arylpyrazole ethers as inhibitors of leukotriene A4 hydrolase” (Boehringer Ingelheim International GmbH, priority 2011, dated 2015).

Assay [1] has as its system LTB4 production in human whole blood. As to the kind of experiment: LTB4 production inhibition assay in human whole blood (calcimycin-stimulated). The class given is cell-based. Conditions: heparinized human whole blood, 15 min 37° C., calcimycin 20 μM 30 min, plasma LTB4 by HTRF. A digest of the protocol:
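Heparinized human whole blood preincubated with compound 15 min at 37° C, then stimulated with calcimycin (20 μM final) for 30 min at 37° C. Plasma LTB4 measured by antibody-based homogeneous time-resolved fluorescence.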

For a further assay, the target named is T1, human LTA4 hydrolase (Homo sapiens, UniProt P09960).
T1 sequence (P09960 1-611): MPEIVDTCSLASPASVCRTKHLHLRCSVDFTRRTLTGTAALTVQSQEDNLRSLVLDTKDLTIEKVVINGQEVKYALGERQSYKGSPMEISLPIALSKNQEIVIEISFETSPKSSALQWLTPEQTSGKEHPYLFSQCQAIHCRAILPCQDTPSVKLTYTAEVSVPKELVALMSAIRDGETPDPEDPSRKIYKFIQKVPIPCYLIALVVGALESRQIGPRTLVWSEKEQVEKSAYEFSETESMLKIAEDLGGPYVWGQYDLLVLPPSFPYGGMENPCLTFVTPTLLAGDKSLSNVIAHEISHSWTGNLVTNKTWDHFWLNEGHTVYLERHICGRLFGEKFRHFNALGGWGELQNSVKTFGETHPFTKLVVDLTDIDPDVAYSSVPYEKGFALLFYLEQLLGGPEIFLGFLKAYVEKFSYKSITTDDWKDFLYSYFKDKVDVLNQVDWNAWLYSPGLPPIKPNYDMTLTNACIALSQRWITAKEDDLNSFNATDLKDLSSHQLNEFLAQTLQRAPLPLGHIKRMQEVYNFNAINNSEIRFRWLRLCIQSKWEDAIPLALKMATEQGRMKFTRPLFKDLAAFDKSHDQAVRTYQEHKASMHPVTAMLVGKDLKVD
Nature of the assay: LTA4H enzyme assay (cleavage of Arg-AMC, fluorescence). The class given is biochemical. Conditions: LTA4H enzyme 1 nM, Arg-AMC substrate 50 μM, room temperature 1 h. Summed up:
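Recombinant human enzyme (1 nM final) was incubated with Arg-AMC substrate (50 μM final) and compound for 1 h at room temperature in 50 mM Tris-HCl pH 7.5, 100 mM KCl, 0.5% BSA. Aminomethylcoumarin release was detected by fluorescence at 380 nm excitation/460 nm emission.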

As for `O=C1CC[C@@H](Oc2ccc(Oc3ccc(-c4ccn[nH]4)cn3)cc2)CN1` [Example 17, (5R)-5-(4-{[5-(1H-pyrazol-5-yl)pyridin-2-yl]oxy}phenoxy)piperidin-2-one], the IC50 in assay [1] is 425 nM; against human LTA4 hydrolase it was 1.5 nM.
For `c1cc(-c2ccc(Oc3ccc(OCC4CCCCO4)cc3)cc2)[nH]n1` (stereo not drawn) [Example 91, 5-{4-[4-(tetrahydro-2H-pyran-2-ylmethoxy)phenoxy]phenyl}-1H-pyrazole], in that order: no less than 5000 nM and 10.7 nM.
For `c1cc(-c2ccc(Oc3ccc(OCCc4cn[nH]c4)cc3)cc2)[nH]n1` [Example 55, 4-(2-{4-[4-(1H-pyrazol-5-yl)phenoxy]phenoxy}ethyl)-1H-pyrazole], in that order: 2500 nM and 7 nM.
The matching figures for `CS(=O)(=O)c1ccc(COc2ccc(Oc3ccc(-c4ccn[nH]4)cc3)cc2)cc1` [Example 37, 5-[4-(4-{[4-(methylsulfonyl)benzyl]oxy}phenoxy)phenyl]-1H-pyrazole]: 2090 nM and 3.5 nM.
With `O=C1N[C@@H](COc2ccc(Oc3ccc(-c4ccn[nH]4)cc3)cc2)CO1` [Example 15, (4S)-4-({4-[4-(1H-pyrazol-5-yl)phenoxy]phenoxy}methyl)-1,3-oxazolidin-2-one], the IC50 was found to be 150 nM in assay [1] and 0.3 nM at human LTA4 hydrolase.
The matching figures for `Cc1ncsc1CCOc1ccc(Oc2ccc(-c3ccn[nH]3)cc2)cc1` [Example 67, 4-Methyl-5-(2-{4-[4-(2H-pyrazol-3-yl)-phenoxy]-phenoxy}-ethyl)-thiazole]: no less than 5000 nM and 11.2 nM.
For `c1cc(-c2ccc(Oc3ccc(OCCN4CCOCC4)cc3)cc2)[nH]n1` [Example 22, 4-(2-{4-[4-(1H-pyrazol-5-yl)phenoxy]phenoxy}ethyl)morpholine], in that order: 179 nM and 0.2 nM.
For `c1cc(-c2ccc(Oc3ccc(OCc4cn5ccsc5n4)cc3)cc2)[nH]n1` [Example 36, 6-({4-[4-(1H-pyrazol-5-yl)phenoxy]phenoxy}methyl)imidazo[2,1-b][1,3]thiazole], in that order: 4500 nM and 6 nM.
Regarding `CC(COc1ccc(Oc2ccc(-c3ccn[nH]3)cc2)cc1)Cn1cccn1` (stereo not drawn) [Example 79, 1-(2-methyl-3-{4-[4-(1H-pyrazol-5-yl)phenoxy]phenoxy}propyl)-1H-pyrazole], the IC50 in assay [1] was 2110 nM; against human LTA4 hydrolase it was 2.7 nM.
For `c1cc(-c2ccc(Oc3ccc(OCc4cnc5cc[nH]c5c4)cc3)cc2)[nH]n1` [Example 49, 6-({4-[4-(1H-pyrazol-5-yl)phenoxy]phenoxy}methyl)-1H-pyrrolo[3,2-b]pyridine], in that order: 3140 nM and 1.2 nM.
For `c1ccc(CCOc2ccc(Oc3ccc(-c4ccn[nH]4)cc3)cc2)cc1` [Example 66, 5-{4-[4-(2-phenylethoxy)phenoxy]phenyl}-1H-pyrazole], in that order: no less than 5000 nM and 959 nM.
The matching figures for `c1cnc(COc2ccc(Oc3ccc(-c4ccn[nH]4)cc3)cc2)nc1` [Example 75, 2-({4-[4-(1H-pyrazol-5-yl)phenoxy]phenoxy}methyl)pyrimidine]: 2840 nM and 6.6 nM.
Regarding `c1cc(-c2ccc(Oc3ccc(OCC4COCCN4)cc3)nc2)[nH]n1` (racemic) [Example 16, 3-[(4-{[5-(1H-pyrazol-5-yl)pyridin-2-yl]oxy}phenoxy)methyl]morpholine], the results for the IC50 (in assay [1]; against human LTA4 hydrolase) were 52 nM and 0.2 nM, respectively.
`c1cc(-c2ccc(Oc3ccc(OCc4ccno4)cc3)cc2)[nH]n1` [Example 52, 5-({4-[4-(1H-pyrazol-5-yl)phenoxy]phenoxy}methyl)isoxazole]: the IC50 in assay [1] came to 2600 nM; at human LTA4 hydrolase it was 4.1 nM.
For `Cc1nccn1CCOc1ccc(Oc2ccc(-c3ccn[nH]3)cc2)cc1` [Example 42, 5-(4-{4-[2-(2-methyl-1H-imidazol-1-yl)ethoxy]phenoxy]phenyl)-1H-pyrazole], in that order: 172 nM and 0.3 nM.
For `c1cc(COc2ccc(Oc3ccc(-c4ccn[nH]4)cc3)cc2)ccn1` [Example 35, 4-({4-[4-(1H-pyrazol-5-yl)phenoxy]phenoxy}methyl)pyridine], in that order: 1780 nM and 3.9 nM.
In the case of `O=C1OCC[C@@H]1Oc1ccc(Oc2ccc(-c3ccn[nH]3)cc2)cc1` [Example 87, (3S)-3-{4-[4-(1H-pyrazol-5-yl)phenoxy]phenoxy}dihydrofuran-2(3H)-one], the IC50 was no less than 5000 nM in assay [1] and 23.1 nM on human LTA4 hydrolase.
The matching figures for `O=C1NC(COc2ccc(Oc3ccc(-c4ccn[nH]4)cc3)cc2)CO1` (stereo not drawn) [Example 10, 4-({4-[4-(1H-pyrazol-5-yl)phenoxy]phenoxy}methyl)-1,3-oxazolidin-2-one]: 126 nM and 0.2 nM.
